Assay results: publication PMC8026785, “The pharmacokinetics of [^18F]UCB-H revisited in the healthy non-human primate brain” (EJNMMI Research, 2021)
Values joined by “and” are separate entries in the source; they are usually repeats but may differ in a detail not shown here. Equal values may be shown once.

Target: T1, SV2A (Macaca fascicularis, UniProt Q4R4X3)
T1 construct: The current study evaluates [^18F]UCB-H pharmacokinetics in healthy NHPs; from tissue; host or cells: brain of living healthy cynomolgus monkeys (in vivo PET)
Assay: Brain PET kinetic modelling (1TCM, 2TCM, 2TCM-c, Logan), test-retest
Type: in vivo, cynomolgus monkeys (Macaca fascicularis)
Experimental: All four non-human primates (NHP) underwent a 2-h (2 h) test and retest PET scan; two NHP underwent an additional 4-h (4 h) retest PET scan. Three NHP underwent one 4-h (4 h) displacement PET scan. Arterial blood sampling was performed during test and retest scans with PET imaging spaced by at least 3 weeks between each scan. To this end, the femoral artery opposite to the saphenous vein used for radioligand injection was cannulated. For the 2-h (2 h) scans, we collected in total 28 blood samples of 1 mL: 16 samples during the first 5 min followed by […] every 5 min and […] every 10 min. For the 4 h scans, we collected an additional 6 samples every 20 min during the last two hours (34 samples in total). Larger samples (2 – 3 mL) were collected at 5, 15, 30, 60, 90, 120 min (2 h) and at 180, 240 min (4 h) for metabolite analysis. Displacement of [^18F]UCB-H was done by intravenous (IV) administration 90 min after [^18F]UCB-H injection of a bolus of 30 mg/kg LEV, or of 80 µg/kg (≈250 nmol/kg) or 5 mg/kg (≈15 µmol/kg) of cold [^19F]-UCB-H. Full experimental design of all NHP is outlined in Additional file 1: Table 1.
PET imaging was performed on the microPET FOCUS220 (Siemens) under standard anesthesia and monitoring procedures. Data acquisition started with the IV bolus injection of [^18F]UCB-H (32.9 ± 1.0 MBq/kg, 0.35 ± 0.07 µg/kg). Dynamic PET images were reconstructed using standard OSEM-2D algorithms while correcting for radioactive decay, scatter, attenuation and detectors inhomogeneity, which were measured prior to PET scanning using respectively ^57Co and ^68Ge external sources.
PET image analysis was performed using PMOD software version 3.8 (PMOD Technologies Ltd., Zurich, Suisse). After individual co-registration of PET-MR images, a cynomolgus atlas published by Ballanger and coworkers was normalized to PET images to extract time activity curves in different brain regions. Volumes of interest (VOI) were cerebral white matter (16.7 cm^3), striatum (0.24 cm^3), thalamus (0.89 cm^3), cerebellum (3.83 cm^3), frontal—(2.50 cm^3), parietal—(5.35 cm^3), and temporal (8.22 cm^3) cortex, and whole brain (72.2 cm^3) as a composite region of all regions in the atlas. [^18F]UCB-H pharmacokinetics were evaluated by analyzing the time activity curves of the test- and retest scans using 1- and 2-tissue compartment models (unconstrained and constrained with global K1/k2 coupled fit across all regions, further referred to as 2TCM and 2TCM-c), and Logan graphical analysis with a fixed t* at 60 min [33] using the arterial plasma input function corrected for radio-metabolites to derive the volume of distribution in each region. Percentage standard error (%SE) was estimated from the theoretical parameter covariance matrix. Only reliable estimates (%SE less than 25%) were included in the current analyses. For the three drug studies, percent displacement of the total activity in the whole brain was estimated relative to an average baseline constructed from the two 4 h baseline studies. Briefly, Standardized Uptake Value (SUV) time activity curves (TACs) were calculated for the two baseline and the three displacement studies. Then, each curve was normalized to the SUV at t = 90 min, corresponding to the timeframe immediately before the administration of the drugs in the displacement studies. Baseline curves were averaged and the percent displacement of total activity was calculated as (baseline-displacement)/baseline at a given time post drug administration (see “Results”).
Statistical analysis was performed using R software (version 3.3.1.). Plasma, intact parent fraction and time activity curves were statistically compared between subjects using a one-factor variance analysis. Absolute Test–Retest variability (aTRV) of PET quantification parameters was calculated as ABS(test—retest) / AVERAGE(test, retest). […]

[1] = Temporal Cortex, Retest, individual NHP
[2] = Temporal Cortex, Test, individual NHP
[3] = Thalamus, Retest, individual NHP

T1 sequence (Q4R4X3 whole entry): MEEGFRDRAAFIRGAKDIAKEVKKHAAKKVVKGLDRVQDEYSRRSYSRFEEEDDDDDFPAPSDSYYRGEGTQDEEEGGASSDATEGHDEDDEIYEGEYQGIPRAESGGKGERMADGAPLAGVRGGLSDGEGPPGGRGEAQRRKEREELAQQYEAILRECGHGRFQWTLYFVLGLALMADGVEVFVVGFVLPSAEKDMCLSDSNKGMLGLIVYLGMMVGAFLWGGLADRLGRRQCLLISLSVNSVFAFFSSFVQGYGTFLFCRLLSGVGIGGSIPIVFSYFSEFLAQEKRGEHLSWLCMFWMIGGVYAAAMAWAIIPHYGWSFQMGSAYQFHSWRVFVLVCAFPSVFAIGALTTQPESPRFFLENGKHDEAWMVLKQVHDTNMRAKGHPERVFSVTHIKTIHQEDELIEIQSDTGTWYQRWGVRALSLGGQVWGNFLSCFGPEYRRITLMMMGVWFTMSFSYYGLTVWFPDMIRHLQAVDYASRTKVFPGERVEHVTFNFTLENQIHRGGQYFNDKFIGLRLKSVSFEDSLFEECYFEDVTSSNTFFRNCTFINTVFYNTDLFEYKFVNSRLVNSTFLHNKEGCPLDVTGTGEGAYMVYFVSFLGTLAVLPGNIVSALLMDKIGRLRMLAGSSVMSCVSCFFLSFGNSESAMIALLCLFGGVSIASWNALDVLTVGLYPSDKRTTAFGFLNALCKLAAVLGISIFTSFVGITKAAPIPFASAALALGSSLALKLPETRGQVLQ

O=C1C[C@H](c2cc(F)c(F)c(F)c2)CN1Cc1ccncc1[18F] [[^18F]UCB-H]
VT (Logan (t* = 60)) (Striatum, Retest, mean): 15.7 mL/cm^3 | k3/k4 (BPND) (2TCM-c) (Striatum, Retest, mean): 1.12 | K1 (2TCM) (Striatum, Test, individual NHP): 0.24 ml/cm^3 /min and 0.25 ml/cm^3 /min and 0.51 ml/cm^3 /min and 0.63 ml/cm^3 /min | K1 (2TCM-c) (Striatum, Test, individual NHP): 0.24 ml/cm^3 /min and 0.26 ml/cm^3 /min and 0.53 ml/cm^3 /min and 0.63 ml/cm^3 /min | K1/k2 (2TCM) (Striatum, Test, individual NHP): 10.32 ml/cm^3 and 7.75 ml/cm^3 and 12.01 ml/cm^3 and 15.06 ml/cm^3 | K1/k2 (2TCM-c) (Striatum, Test, individual NHP): 7.86 ml/cm^3 and 4.35 ml/cm^3 and 8.22 ml/cm^3 and 10.99 ml/cm^3 | VT (1TCM) (Striatum, Test, individual NHP): 12.87 ml/cm^3 and 11.31 ml/cm^3 and 16.41 ml/cm^3 and 16.40 ml/cm^3 | VT (2TCM) (Striatum, Test, individual NHP): 13.09 ml/cm^3 and 17.60 ml/cm^3 | VT (2TCM-c) (Striatum, Test, individual NHP): 14.78 ml/cm^3 and 11.92 ml/cm^3 and 16.73 ml/cm^3 and 16.50 ml/cm^3 | VT (Logan) (Striatum, Test, individual NHP): 15.21 ml/cm3 and 12.85 ml/cm3 and 17.23 ml/cm3 and 17.97 ml/cm3 | k3/k4 (2TCM) (Striatum, Test, individual NHP): 0.69 | k3/k4 (2TCM-c) (Striatum, Test, individual NHP): 1.74 and 1.24 and 0.50 | VT (1TCM) (Striatum, Test, mean): 14.2 mL/cm^3 | VT (2TCM) (Striatum, Test, mean): 15.3 mL/cm^3 | VT (2TCM-c) (Striatum, Test, mean): 15.0 mL/cm^3 | VT (Logan (t* = 60)) (Striatum, Test, mean): 15.8 mL/cm^3 | k3/k4 (BPND) (2TCM-c) (Striatum, Test, mean): 1.16 | K1 (2TCM) [1]: 0.31 ml/cm^3 /min and 0.45 ml/cm^3 /min and 0.29 ml/cm^3 /min and 0.36 ml/cm^3 /min | K1 (2TCM-c) [1]: 0.32 ml/cm^3 /min and 0.48 ml/cm^3 /min and 0.30 ml/cm^3 /min and 0.36 ml/cm^3 /min | K1/k2 (2TCM) [1]: 11.50 ml/cm^3 and 9.63 ml/cm^3 and 11.78 ml/cm^3 | K1/k2 (2TCM-c) [1]: 7.25 ml/cm^3 and 4.64 ml/cm^3 and 9.07 ml/cm^3 and 10.70 ml/cm^3 | VT (1TCM) [1]: 11.57 ml/cm^3 and 13.96 ml/cm^3 and 13.50 ml/cm^3 and 13.13 ml/cm^3 | VT (2TCM) [1]: 13.97 ml/cm^3 and 13.95 ml/cm^3 | VT (2TCM-c) [1]: 11.57 ml/cm^3 and 14.06 ml/cm^3 and 13.53 ml/cm^3 | VT (Logan) [1]: 11.91 ml/cm3 and 13.90 ml/cm3 and 16.34 ml/cm3 and 13.54 ml/cm3 | k3/k4 (2TCM-c) [1]: 0.60 and 2.03 and 0.29 | K1 (2TCM) [2]: 0.17 ml/cm^3 /min and 0.23 ml/cm^3 /min and 0.37 ml/cm^3 /min and 0.44 ml/cm^3 /min | K1 (2TCM-c) [2]: 0.17 ml/cm^3 /min and 0.24 ml/cm^3 /min and 0.37 ml/cm^3 /min and 0.44 ml/cm^3 /min | K1/k2 (2TCM) [2]: 11.10 ml/cm^3 and 7.16 ml/cm^3 and 8.97 ml/cm^3 and 12.30 ml/cm^3 | K1/k2 (2TCM-c) [2]: 7.86 ml/cm^3 and 4.35 ml/cm^3 and 8.22 ml/cm^3 and 10.99 ml/cm^3 | VT (1TCM) [2]: 12.66 ml/cm^3 and 10.58 ml/cm^3 and 14.25 ml/cm^3 and 13.95 ml/cm^3 | VT (2TCM) [2]: 12.30 ml/cm^3 and 15.50 ml/cm^3 | VT (2TCM-c) [2]: 17.46 ml/cm^3 and 11.23 ml/cm^3 and 14.95 ml/cm^3 and 15.47 ml/cm^3 | VT (Logan) [2]: 14.13 ml/cm3 and 11.99 ml/cm3 and 15.12 ml/cm3 and 15.35 ml/cm3 | k3/k4 (2TCM) [2]: 0.72 | k3/k4 (2TCM-c) [2]: 1.00 and 1.58 and 0.41 | ICC of Logan (t* = 60) VT (Temporal cortex): 0.61 | aTRV of 2TCM-c VT (Temporal cortex): 25% | aTRV of Logan (t* = 60) VT (Temporal cortex): 13% | VT (1TCM) (Temporal cortex, Retest, mean): 13.0 mL/cm^3 | VT (2TCM) (Temporal cortex, Retest, mean): 14.0 mL/cm^3 | VT (2TCM-c) (Temporal cortex, Retest, mean): 13.1 mL/cm^3 | VT (Logan (t* = 60)) (Temporal cortex, Retest, mean): 13.9 mL/cm^3 | k3/k4 (BPND) (2TCM-c) (Temporal cortex, Retest, mean): 0.97 | VT (1TCM) (Temporal cortex, Test, mean): 12.9 mL/cm^3 | VT (2TCM) (Temporal cortex, Test, mean): 13.9 mL/cm^3 | VT (2TCM-c) (Temporal cortex, Test, mean): 14.8 mL/cm^3 | VT (Logan (t* = 60)) (Temporal cortex, Test, mean): 14.1 mL/cm^3 | k3/k4 (BPND) (2TCM-c) (Temporal cortex, Test, mean): 1.00 | ICC of Logan (t* = 60) VT (Thalamus): 0.61 | aTRV of 2TCM-c VT (Thalamus): 18% | aTRV of Logan (t* = 60) VT (Thalamus): 12% | K1 (2TCM) [3]: 0.36 ml/cm^3 /min and 0.51 ml/cm^3 /min and 0.34 ml/cm^3 /min and 0.38 ml/cm^3 /min | K1 (2TCM-c) [3]: 0.37 ml/cm^3 /min and 0.54 ml/cm^3 /min and 0.36 ml/cm^3 /min and 0.38 ml/cm^3 /min | K1/k2 (2TCM) [3]: 12.79 ml/cm^3 and 11.34 ml/cm^3 and 12.88 ml/cm^3 | K1/k2 (2TCM-c) [3]: 7.25 ml/cm^3 and 4.64 ml/cm^3 and 9.07 ml/cm^3 and 10.70 ml/cm^3 | VT (1TCM) [3]: 11.85 ml/cm^3 and 13.85 ml/cm^3 and 14.73 ml/cm^3 and 13.28 ml/cm^3 | VT (2TCM) [3]: 11.88 ml/cm^3 and 14.03 ml/cm^3 | VT (2TCM-c) [3]: 11.88 ml/cm^3 and 13.92 ml/cm^3 and 17.03 ml/cm^3 and 13.98 ml/cm^3 | VT (Logan) [3]: 12.16 ml/cm3 and 14.10 ml/cm3 and 17.41 ml/cm3 and 13.62 ml/cm3
